Patent US11260049B2, “TRPV4 antagonists” (GlaxoSmithKline Intellectual Property (No. 2) Limited, priority 2016, dated 2022)
Where a name gives a salt, the structure may show the parent alone.

Target: human TRPV4 (Homo sapiens (Human), UniProt Q9HBA0)
Test: FLIPR assay for hTRPV4 expressed in BHK cells
Type: cell-based
Conditions: inhibition of Agonist Compound (EC80)-induced calcium signal; BHK/AC9 cells expressing human TRPV4; read-out: IC50
Summary of the method: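 BHK/AC9 cells transduced with BacMam human TRPV4 (MOI 78), 15,000 cells/well, cultured 24 h at 37 °C. Loaded with 2 μM Fluo-4 AM and 500 μM Brilliant Black in HBSS for 1–1.5 h at room temperature in the dark. Intracellular calcium influx monitored by fluorescence.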

human TRPV4, sequence (Q9HBA0 whole entry): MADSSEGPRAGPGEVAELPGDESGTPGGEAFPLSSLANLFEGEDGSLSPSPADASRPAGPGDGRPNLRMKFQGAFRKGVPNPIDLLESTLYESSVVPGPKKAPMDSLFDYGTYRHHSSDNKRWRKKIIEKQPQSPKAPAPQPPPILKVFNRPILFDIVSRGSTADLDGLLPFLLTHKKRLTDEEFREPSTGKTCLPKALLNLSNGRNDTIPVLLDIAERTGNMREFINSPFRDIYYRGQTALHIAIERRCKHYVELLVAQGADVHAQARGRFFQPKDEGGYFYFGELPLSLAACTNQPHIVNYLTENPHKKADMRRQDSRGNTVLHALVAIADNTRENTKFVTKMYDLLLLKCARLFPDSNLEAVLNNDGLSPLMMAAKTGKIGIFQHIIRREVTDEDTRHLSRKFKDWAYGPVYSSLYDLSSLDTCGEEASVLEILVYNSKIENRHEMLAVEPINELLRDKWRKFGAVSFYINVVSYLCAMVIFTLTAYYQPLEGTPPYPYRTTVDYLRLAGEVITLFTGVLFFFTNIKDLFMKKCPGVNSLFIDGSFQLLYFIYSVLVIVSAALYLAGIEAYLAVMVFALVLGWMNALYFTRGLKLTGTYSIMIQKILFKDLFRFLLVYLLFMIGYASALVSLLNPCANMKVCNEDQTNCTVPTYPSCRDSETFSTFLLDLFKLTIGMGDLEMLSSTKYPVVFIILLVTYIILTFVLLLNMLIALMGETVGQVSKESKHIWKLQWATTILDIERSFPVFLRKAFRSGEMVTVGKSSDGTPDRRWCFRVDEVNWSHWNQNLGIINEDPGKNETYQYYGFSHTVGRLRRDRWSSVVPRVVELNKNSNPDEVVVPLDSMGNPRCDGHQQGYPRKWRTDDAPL

| SMILES | IC50 [nM] |
| --- | --- |
| N#Cc1ccc(S(=O)(=O)N2C[C@H](S(=O)(=O)c3ccc(Cl)cc3)[C@@](O)(CN)C2)cc1 [Example 127, 4-(((3R,4S)-3-(aminomethyl)-4-((4-chlorophenyl)sulfonyl)-3-hydroxypyrrolidin-1-yl)sulfonyl)benzonitrile] | 10 to 100 |
| N#Cc1ccc(S(=O)(=O)N2C[C@H](S(=O)(=O)c3ccc(Cl)cc3)[C@@](O)(CNCC(F)(F)F)C2)c(Cl)c1 [Example 128, 3-chloro-4-(((3R,4S)-4-((4-chlorophenyl)sulfonyl)-3-hydroxy-3-(((2,2,2-trifluoroethyl)amino)methyl)pyrrolidin-1-yl)sulfonyl)benzonitrile] | 10 to 100 |
| N#Cc1ccc(S(=O)(=O)N2C[C@H](S(=O)(=O)c3ccc(Cl)cn3)[C@@]3(CNCCO3)C2)c(Cl)c1 [Example 129, 3-chloro-4-(((4S,5R)-4-((5-chloropyridin-2-yl)sulfonyl)-6-oxa-2,9-diazaspiro[4.5]decan-2-yl)sulfonyl)benzonitrile, Hydrochloride] | 10 to 100 |
